{
  "source": "paper PMC7280082",
  "about": "(Acta Pharmaceutica Sinica. B, 2019)",
  "key": {"[1]": {"tested_on": "HIV-1 RES056 (K103N + Y181C) double-mutant strain", "assay": "microbe, parasite or virus in culture", "format": "cell-based"}, "WT HIV-1 RT": {"biological_target": "WT HIV-1 RT (Human immunodeficiency virus type 1 group M subtype B, UniProt P03366)", "assay": "Recombinant HIV-1 RT inhibitory assay", "format": "biochemical"}, "[2]": {"tested_on": "HIV-1 F227L + V106A double-mutant strain", "assay": "microbe, parasite or virus in culture", "format": "cell-based"}, "WT HIV-1 (IIIB)": {"tested_on": "WT HIV-1 (IIIB)", "assay": "microbe, parasite or virus in culture", "format": "cell-based"}, "[3]": {"tested_on": "HIV-1 Y181C mutant strain", "assay": "microbe, parasite or virus in culture", "format": "cell-based"}, "Kunming mice": {"tested_on": "Kunming mice", "assay": "Acute toxicity experiment in Kunming mice", "format": "in vivo", "conditions": "single oral dose of 2000 mg/kg"}, "[4]": {"tested_on": "HIV-1 Y188L mutant strain", "assay": "microbe, parasite or virus in culture", "format": "cell-based"}, "HIV-2 strain (ROD)": {"tested_on": "HIV-2 strain (ROD)", "assay": "Anti-HIV-2", "format": "cell-based"}, "[5]": {"tested_on": "HIV-1 K103N mutant strain", "assay": "microbe, parasite or virus in culture", "format": "cell-based"}, "[6]": {"tested_on": "HIV-1 E138K mutant strain", "assay": "microbe, parasite or virus in culture", "format": "cell-based"}, "[7]": {"assay": "Cytotoxicity in mock-infected MT-4 cell cultures, MTT method", "conditions": "human, mock-infected MT-4 cells"}, "[8]": {"assay": "In vivo pharmacokinetics in Wistar rat", "conditions": "plasma"}, "[9]": {"tested_on": "HIV-1 L100I mutant strain", "assay": "microbe, parasite or virus in culture", "format": "cell-based"}, "[10]": {"conditions": "ratio of EC50 (resistant viral strain)/EC50 (wild-type viral strain)"}},
  "data": [
    {"smiles": "Cc1cc(-c2ccc(C#N)cc2)cc(C)c1Oc1nc(NC2CCN(Cc3ccc(C(N)=O)cc3)CC2)nc2ccsc12", "note": "[Compound 26, 4-((4-((4-((4′-Cyano-3,5-dimethyl-[1,1′-biphenyl]-4-yl)oxy)thieno[3,2-d]pyrimidin-2-yl)amino)piperidin-1-yl)methyl)benzamide]", "values": [
      {"measurement": "SI RES056", "setting": "[1]; CC50/EC50", "result": 44},
      {"measurement": "EC50", "setting": "[1]; Human immunodeficiency virus 1, MT4, read-out: EC50 RES056", "result": "0.125 ± 0.0393", "unit": "µM"},
      {"measurement": "RF RES056", "setting": "[1]; [10]", "result": 12.6},
      {"measurement": "IC50", "setting": "WT HIV-1 RT", "result": "0.182 ± 0.016", "unit": "µM"},
      {"measurement": "SI F227L + V106A", "setting": "[2]; CC50/EC50", "result": 56},
      {"measurement": "EC50", "setting": "[2]; Human immunodeficiency virus 1, MT4, read-out: EC50 F227L + V106A", "result": "0.0972 ± 0.0253", "unit": "µM"},
      {"measurement": "RF F227L + V106A", "setting": "[2]; [10]", "result": 9.8},
      {"measurement": "EC50", "setting": "WT HIV-1 (IIIB); Human immunodeficiency virus 1, IIIB, MT4, read-out: EC50 IIIB", "result": "0.00993 ± 0.00127", "unit": "µM"},
      {"measurement": "SI IIIB", "setting": "WT HIV-1 (IIIB); ratio of CC50/EC50", "result": 552},
      {"measurement": "SI Y181C", "setting": "[3]; CC50/EC50", "result": 290},
      {"measurement": "EC50", "setting": "[3]; Human immunodeficiency virus 1, MT4, read-out: EC50 Y181C", "result": "0.0189 ± 0.00228", "unit": "µM"},
      {"measurement": "RF Y181C", "setting": "[3]; [10]", "result": 1.9},
      {"measurement": "mortality or poisoning symptom", "setting": "Kunming mice", "result": "no mortality or poisoning symptom"},
      {"measurement": "SI Y188L", "setting": "[4]; CC50/EC50", "result": 229},
      {"measurement": "EC50", "setting": "[4]; Human immunodeficiency virus 1, MT4, read-out: EC50 Y188L", "result": "0.0239 ± 0.0024", "unit": "µM"},
      {"measurement": "RF Y188L", "setting": "[4]; [10]", "result": 2.4},
      {"measurement": "EC50", "setting": "HIV-2 strain (ROD); Human immunodeficiency virus 2, MT4, read-out: EC50 ROD", "result": "> 5.49", "unit": "µM"},
      {"measurement": "SI ROD", "setting": "HIV-2 strain (ROD); ratio of CC50/EC50", "result": "<1"},
      {"measurement": "SI K103N", "setting": "[5]; CC50/EC50", "result": 910},
      {"measurement": "EC50", "setting": "[5]; Human immunodeficiency virus 1, MT4, read-out: EC50 K103N", "result": "0.00602 ± 0.00084", "unit": "µM"},
      {"measurement": "SI E138K", "setting": "[6]; CC50/EC50", "result": 236},
      {"measurement": "EC50", "setting": "[6]; Human immunodeficiency virus 1, MT4, read-out: EC50 E138K", "result": "0.0232 ± 0.00864", "unit": "µM"},
      {"measurement": "RF E138K", "setting": "[6]; [10]", "result": 2.3},
      {"measurement": "CC50 at 5 days", "setting": "[7]", "result": "5.48 ± 2.12", "unit": "µM"},
      {"measurement": "AUC(0-inf)", "setting": "[8]; iv, 2 mg/kg", "result": "1.34 ± 0.0539", "unit": "µg·h/mL"},
      {"measurement": "AUC(0-t)", "setting": "[8]; iv, 2 mg/kg", "result": "1.29 ± 0.0627", "unit": "µg·h/mL"},
      {"measurement": "Cmax", "setting": "[8]; iv, 2 mg/kg", "result": "0.941 ± 0.181", "unit": "µg/mL"},
      {"measurement": "clearance", "setting": "[8]; iv, 2 mg/kg", "result": "1.5 ± 0.0624", "unit": "L/h/kg"},
      {"measurement": "half-life", "setting": "[8]; iv, 2 mg/kg", "result": "1.71 ± 0.24", "unit": "h"},
      {"measurement": "bioavailability", "setting": "[8]; oral, 20 mg/kg", "result": 33.8, "unit": "%"},
      {"measurement": "AUC(0-inf)", "setting": "[8]; po, 20 mg/kg", "result": "4.76 ± 1.35", "unit": "µg·h/mL"},
      {"measurement": "AUC(0-t)", "setting": "[8]; po, 20 mg/kg", "result": "4.36 ± 1.57", "unit": "µg·h/mL"},
      {"measurement": "Cmax", "setting": "[8]; po, 20 mg/kg", "result": "0.762 ± 0.296", "unit": "µg/mL"},
      {"measurement": "Tmax", "setting": "[8]; po, 20 mg/kg", "result": "2 ± 0.32", "unit": "h"},
      {"measurement": "half-life", "setting": "[8]; po, 20 mg/kg", "result": "2.68 ± 0.2", "unit": "h"},
      {"measurement": "SI L100I", "setting": "[9]; CC50/EC50", "result": 521},
      {"measurement": "EC50", "setting": "[9]; Human immunodeficiency virus 1, MT4, read-out: EC50 L100I", "result": "0.0105 ± 0.00456", "unit": "µM"},
      {"measurement": "RF L100I", "setting": "[9]; [10]", "result": 1.1}
    ]}
  ]
}
